Test results as given in patent publication US20250242064A1, “CXCR4-TARGETING COMPOUNDS, AND METHODS OF MAKING AND USING THE SAME” (PROVINCIAL HEALTH SERVICES AUTHORITY, priority 2022, published 2025).
Where a SMILES comes first, the peptide text is derived from it. Bridges are numbered along the chain shown (N, C = ends). [ ]: non-standard residue; d: D form. The star is where a group is joined. X1 = O=C(O)CN1CCN(CC(=O)O)CCN(CC(=O)N[C@@H](CS(=O)(=O)O)C(=O)N[C@@H](CCCCNC(=O)CCCc2ccc(I)cc2)C(=O)*)CCN(CC(=O)O)CC1; 2Nal = N[C@@H](Cc1ccc2ccccc2c1)C(=O)O; Lys(iPr) = CC(C)NCCCC[C@H](N)C(=O)O

Experiment: in vivo
Design: species or system mice
Conditions: male, mouse, iv, total radioactivity
Method: The Z138 Mantle cell lymphoma cell line was purchased from the American Type Culture Collection (ATCC©CRL-3001). The cell line was cultured in a 5% CO2 atmosphere at 37° C. in a humidified incubator with IMDM medium supplemented with 10% fetal bovine serum, 100 I.U./mL penicillin, and 100 μg/mL streptomycin.
[^68Ga]GaCl3 was eluted from an iThemba Labs generator with a total of 4 mL of 0.1 M HCl. The eluted [^68Ga]GaCl3 solution was added to 2 mL of concentrated HCl. This radioactive mixture was then added to a DGA resin column and washed with 3 mL of 5 M HCl. The column was then dried with air and the [^68Ga]GaCl3 (0.10-0.50 GBq) was eluted with 0.5 mL of water into a vial containing a solution of the unlabeled precursor (25 μg) in 0.7 mL HEPES buffer (2 M, pH 5.3). The reaction mixture was heated in a microwave oven (Danby; DMW7700WDB) for 1 min at power setting 2. The mixture was purified by semi-prep HPLC and quality control was performed via analytical HPLC with the co-injection of the unlabeled standard with a one-twelfth of the radiotracer. Radiochemical yields (decay-corrected) were >50% and radiochemical purities were >95%.
Animal experiments were performed in accordance with guidelines established by the Canadian Council on Animal Care, under a research protocol approved by the Animal Ethics Committee of the University of British Columbia. For all studies, male NOD.Cg-Rag1tm1Momll2rgtm1Wjl/SzJ (NRG) mice were used and cells injected in a 100 μL solution of 1:1 ratio of PBS/Matrigel. For preclinical imaging and biodistribution studies, 5×10^6 cells of Z138, cells were subcutaneously inoculated on the left or right flank and tumors were grown to a size of 200-300 mm^3. […]
Under isoflurane anesthesia (2-2.5% isoflurane in 2 L/min 02), mice were injected intravenously with [^68Ga]Ga-BL34L6 or [^68Ga]Ga-BL34L7. Mice were euthanized by CO2 inhalation after anesthesia with isoflurane. Tissues were harvested, washed in PBS, patted dry, weighed, and then assayed radioactivity on a gamma counter. Counted radioactivities were converted to percentage injected dose per gram of tissue (% ID/g) using a calibration curve.

[1] = NOD.Cg-Rag1tm1Mom Il2rgtm1Wjl/SzJ (NRG), Biodistribution: Adrenals
[2] = NOD.Cg-Rag1tm1Mom Il2rgtm1Wjl/SzJ (NRG), Biodistribution: Bone
[3] = NOD.Cg-Rag1tm1Mom Il2rgtm1Wjl/SzJ (NRG), Biodistribution: Brain
[4] = NOD.Cg-Rag1tm1Mom Il2rgtm1Wjl/SzJ (NRG), Biodistribution: Heart
[5] = NOD.Cg-Rag1tm1Mom Il2rgtm1Wjl/SzJ (NRG), Biodistribution: Kidneys
[6] = NOD.Cg-Rag1tm1Mom Il2rgtm1Wjl/SzJ (NRG), Biodistribution: Liver
[7] = NOD.Cg-Rag1tm1Mom Il2rgtm1Wjl/SzJ (NRG), Biodistribution: Lungs
[8] = NOD.Cg-Rag1tm1Mom Il2rgtm1Wjl/SzJ (NRG), Biodistribution: Muscle
[9] = NOD.Cg-Rag1tm1Mom Il2rgtm1Wjl/SzJ (NRG), Biodistribution: Pancreas
[10] = NOD.Cg-Rag1tm1Mom Il2rgtm1Wjl/SzJ (NRG), Biodistribution: Small Intestine
[11] = NOD.Cg-Rag1tm1Mom Il2rgtm1Wjl/SzJ (NRG), Biodistribution: Spleen
[12] = NOD.Cg-Rag1tm1Mom Il2rgtm1Wjl/SzJ (NRG), Biodistribution: Z138 Tumor
[13] = NOD.Cg-Rag1tm1Mom Il2rgtm1Wjl/SzJ (NRG), Ratio Tumor-to-Blood
[14] = NOD.Cg-Rag1tm1Momll2rgtm1Wjl/SzJ (NRG), Biodistribution: Blood
[15] = NOD.Cg-Rag1tm1Momll2rgtm1Wjl/SzJ (NRG), Biodistribution: Stomach
[16] = NOD.Cg-Rag1tm1Momll2rgtm1Wjl/SzJ (NRG), Biodistribution: Testes
[17] = NOD.Cg-Rag1tm1Momll2rgtm1Wjl/SzJ (NRG), Ratio Tumor-to-Bone
[18] = NOD.Cg-Rag1tm1Momll2rgtm1Wjl/SzJ (NRG), Ratio Tumor-to-Kidney
[19] = NOD.Cg-Rag1tm1Momll2rgtm1Wjl/SzJ (NRG), Ratio Tumor-to-Muscle
[20] = NOD.Cg-Rag1tm1Momll2rgtm1Wjl/SzJ (NRG), Ratio Tumor-to-Pancreas

In the case of `CC(C)NCCCC[C@H](NC(=O)[C@H]1CCC(=O)N[C@@H](CCCCNC(=O)[C@H](CCCCNC(=O)CCCc2ccc(I)cc2)NC(=O)[C@H](CS(=O)(=O)O)NC(=O)CN2CCN(CC(=O)O)CCN(CC(=O)O)CCN(CC(=O)O)CC2)C(=O)N[C@@H](Cc2ccc(O)cc2)C(=O)N[C@@H](CCCCNC(C)C)C(=O)N[C@H](CCCNC(=N)N)C(=O)N[C@@H](Cc2ccc3ccccc3c2)C(=O)N[C@H](C)C(=O)N1)C(N)=O` [[^177Lu]Lu-BL34L11, metal not drawn] (K(X1)Y[Lys(iPr)][dR][2Nal][dA][dE][Lys(iPr)]-NH2; lactam N-7), the tissue uptake at 24 h [1] was 2.44 %ID/g, the tissue uptake at 72 h [1] was 1.8 %ID/g and the tissue uptake at 120 h [1] was 1.62 %ID/g. It also gave a tissue uptake at 24 h [2] of 0.71 %ID/g, a tissue uptake at 72 h [2] of 0.42 %ID/g and a tissue uptake at 120 h [2] of 0.29 %ID/g. It also gave a tissue uptake at 24 h [3] of 0.18 %ID/g, a tissue uptake at 72 h [3] of 0.07 %ID/g and a tissue uptake at 120 h [3] of 0.05 %ID/g. For the same compound, the tissue uptake at 24 h [4] was 1.8 %ID/g, the tissue uptake at 72 h [4] was 1.1 %ID/g and the tissue uptake at 120 h [4] was 0.76 %ID/g. The tissue uptake at 24 h [5] was 2.67 %ID/g, the tissue uptake at 72 h [5] was 1.19 %ID/g and the tissue uptake at 120 h [5] was 0.75 %ID/g. The tissue uptake at 24 h [6] was 1.99 %ID/g, the tissue uptake at 72 h [6] was 1.1 %ID/g and the tissue uptake at 120 h [6] was 0.45 %ID/g. It also gave a tissue uptake at 24 h [7] of 4.88 %ID/g, a tissue uptake at 72 h [7] of 2.86 %ID/g and a tissue uptake at 120 h [7] of 1.91 %ID/g. For the same compound, the tissue uptake at 24 h [8] was 0.76 %ID/g, the tissue uptake at 72 h [8] was 0.38 %ID/g and the tissue uptake at 120 h [8] was 0.21 %ID/g. The tissue uptake at 24 h [9] was 1.05 %ID/g, the tissue uptake at 72 h [9] was 0.45 %ID/g and the tissue uptake at 120 h [9] was 0.53 %ID/g. It also gave a tissue uptake at 24 h [10] of 0.79 %ID/g, a tissue uptake at 72 h [10] of 0.38 %ID/g and a tissue uptake at 120 h [10] of 0.21 %ID/g. It also gave a tissue uptake at 24 h [11] of 2.13 %ID/g, a tissue uptake at 72 h [11] of 1.96 %ID/g and a tissue uptake at 120 h [11] of 1.86 %ID/g. It also gave a tissue uptake at 24 h [12] of 26.6 %ID/g, a tissue uptake at 72 h [12] of 35 %ID/g and a tissue uptake at 120 h [12] of 41.2 %ID/g. It also gave a tissue to tissue ratio at 24 h [13] of 3.42, a tissue to tissue ratio at 72 h [13] of 12.3 and a tissue to tissue ratio at 120 h [13] of 25. For the same compound, the tissue to tissue ratio at 72 h (NOD.Cg-Rag1tm1Mom Il2rgtm1Wjl/SzJ (NRG), Ratio Tumor-to-Muscle) was 91.8, the tissue uptake at 24 h [14] was 7.82 %ID/g and the tissue uptake at 72 h [14] was 2.84 %ID/g. It also gave a tissue uptake at 120 h [14] of 1.6 %ID/g, a tissue uptake at 24 h [15] of 0.75 %ID/g and a tissue uptake at 72 h [15] of 0.32 %ID/g. The tissue uptake at 120 h [15] was 0.24 %ID/g, the tissue uptake at 24 h [16] was 2.64 %ID/g and the tissue uptake at 72 h [16] was 1.47 %ID/g. It also gave a tissue uptake at 120 h [16] of 2.04 %ID/g, a tissue to tissue ratio at 24 h [17] of 28.3 and a tissue to tissue ratio at 72 h [17] of 53.7. It also gave a tissue to tissue ratio at 120 h [17] of 55.9, a tissue to tissue ratio at 24 h [18] of 10.1 and a tissue to tissue ratio at 72 h [18] of 29.3. It also gave a tissue to tissue ratio at 120 h [18] of 54.2, a tissue to tissue ratio at 24 h [19] of 35.8 and a tissue to tissue ratio at 120 h [19] of 190. It also gave a tissue to tissue ratio at 24 h [20] of 25.9, a tissue to tissue ratio at 72 h [20] of 71.7 and a tissue to tissue ratio at 120 h [20] of 122.
